The test system of the assay is multidrug-resistant (MDR) strains of Mycobacterium tuberculosis. As to the kind of experiment: microbe, parasite or virus in culture. In kind it is cell-based. Conditions: 192 h, read-out: MIC (μg/mL) MDR-TB, MDR-TB: resistant at least to isoniazid and rifampicin, REMA, 8 days incubation at 37° C.

On to `Cc1cc(C)c[n+](CC(=O)c2ccc(F)cc2)c1.[Br-]` [Compound 3d, 1-(2-(4-Fluorophenyl)-2-oxoethyl)-3,5-dimethylpyridin-1-ium bromide], for which the MIC was around 8 µg/mL.

The record behind these values is patent US11939294B1 (priority 2023, dated 2024).
